Data from patent US7250442B2, “Dihydroindol-2-one derivatives as steroid hormone nuclear receptor modulators” (Eli Lilly and Company, priority 2003, dated 2007).

target: T1, glucocorticoid receptor (Homo sapiens, UniProt P04150); experiment: Glucocorticoid Receptor Binding Assay ([3H]-dexamethasone displacement, A549 cell extract); details: A549 human lung epithelial cell extract, 1.86 nM [3H]-dexamethasone; read-out: GR Ki
T1 construct: host or cells: A549 human lung epithelial cells (sonicated cell extract)
T1 sequence (P04150 1-777): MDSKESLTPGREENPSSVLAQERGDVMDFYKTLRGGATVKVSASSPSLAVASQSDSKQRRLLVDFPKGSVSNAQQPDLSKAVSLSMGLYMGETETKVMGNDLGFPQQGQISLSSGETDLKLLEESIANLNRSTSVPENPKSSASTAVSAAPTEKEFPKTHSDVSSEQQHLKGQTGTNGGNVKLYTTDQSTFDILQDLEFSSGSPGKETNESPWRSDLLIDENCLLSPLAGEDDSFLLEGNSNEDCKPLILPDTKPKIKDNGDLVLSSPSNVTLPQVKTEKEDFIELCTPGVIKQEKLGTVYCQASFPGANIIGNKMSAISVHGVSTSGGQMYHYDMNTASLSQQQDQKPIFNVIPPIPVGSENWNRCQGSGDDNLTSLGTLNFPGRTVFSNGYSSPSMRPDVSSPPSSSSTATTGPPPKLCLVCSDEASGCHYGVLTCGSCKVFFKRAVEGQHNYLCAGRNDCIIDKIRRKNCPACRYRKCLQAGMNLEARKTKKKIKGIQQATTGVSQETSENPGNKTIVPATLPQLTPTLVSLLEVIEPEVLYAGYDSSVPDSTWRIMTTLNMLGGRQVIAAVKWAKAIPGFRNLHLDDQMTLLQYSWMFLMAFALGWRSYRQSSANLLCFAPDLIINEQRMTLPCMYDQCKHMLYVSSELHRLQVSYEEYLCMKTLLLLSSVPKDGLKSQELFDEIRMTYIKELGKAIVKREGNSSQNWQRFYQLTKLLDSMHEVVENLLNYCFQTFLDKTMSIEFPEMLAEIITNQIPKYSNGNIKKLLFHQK
Method in brief: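 A549 cell extract (50-200 ug; buffer 50 mM Tris-HCl pH 7.2 with glycerol, NaCl, MgCl2, EDTA, 10 mM molybdate) incubated with 1.86 nM [3H]-dexamethasone and test compound, 16 h at 4 °C. Unbound ligand removed with dextran-coated charcoal; bound radioactivity counted. IC50 converted to Ki via Cheng-Prusoff.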

`Cc1cc(C2(c3cc(C)c(O)c(C)c3)C(=O)N(Cc3ccc(F)cc3F)c3ccccc32)cc(C)c1O` [Example 43, 1-(2,4-Difluoro-benzyl)-3,3-bis-(4-hydroxy-3,5-dimethyl-phenyl)-1,3-dihydro-indol-2-one] and `Cc1cc(C2(c3cc(C)c(O)c(C)c3)C(=O)N(Cc3c(F)cccc3Cl)c3ccccc32)cc(C)c1O` [Example 76, 1-(2-Chloro-6-fluoro-benzyl)-3,3-bis-(4-hydroxy-3,5-dimethyl-phenyl)-1,3-dihydro-indol-2-one] cannot be ordered by Ki: at most 500 nM for the first, at most 500 nM for the second.

`Cc1cc(C2(c3cc(C)c(O)c(C)c3)C(=O)N(Cc3ccc(Br)cc3)c3ccccc32)cc(C)c1O` [Example 58, 1-(4-Bromo-benzyl)-3,3-bis-(4-hydroxy-3,5-dimethyl-phenyl)-1,3-dihydro-indol-2-one] and `Cc1cc(C2(c3cc(C)c(O)c(C)c3)C(=O)N(Cc3c(Cl)cccc3Cl)c3ccccc32)cc(C)c1O` [Example 113, 1-(2,6-Dichloro-benzyl)-3,3-bis-(4-hydroxy-3,5-dimethyl-phenyl)-1,3-dihydro-indol-2-one] cannot be ordered by Ki: at most 500 nM for the first, at most 500 nM for the second.

`Cc1cc(C2(c3cc(C)c(O)c(C)c3)C(=O)N(CC3CCCCC3)c3ccccc32)cc(C)c1O` [Example 6, 1-Cyclohexylmethyl-3,3-bis-(4-hydroxy-3,5-dimethyl-phenyl)-1,3-dihydro-indol-2-one] and `Cc1cc(C2(c3cc(C)c(O)c(C)c3)C(=O)N(CC#N)c3ccccc32)cc(C)c1O` [Example 78, [3,3-Bis-(4-hydroxy-3,5-dimethyl-phenyl)-2-oxo-2,3-dihydro-indol-1-yl]-acetonitrile] cannot be ordered by Ki: at most 500 nM for the first, at most 500 nM for the second.

`COC(=O)c1ccc(CN2C(=O)C(c3cc(C)c(O)c(C)c3)(c3cc(C)c(O)c(C)c3)c3ccccc32)o1` [Example 108, 5-[3,3-Bis-(4-hydroxy-3,5-dimethyl-phenyl)-2-oxo-2,3-dihydro-indol-1-ylmethyl]-furan-2-carboxylic acid methyl ester] and `CCCCCN1C(=O)C(c2cc(C)c(O)c(C)c2)(c2cc(C)c(O)c(C)c2)c2ccccc21` [Example 77, 3,3-Bis-(4-hydroxy-3,5-dimethyl-phenyl)-1-pentyl-1,3-dihydro-indol-2-one] cannot be ordered by Ki: at most 500 nM for the first, at most 500 nM for the second.

`Cc1cc(C2(c3cc(C)c(O)c(C)c3)C(=O)N(c3cccc(C(F)(F)F)c3)c3ccccc32)cc(C)c1O` [Example 127, 3,3-Bis-(4-hydroxy-3,5-dimethyl-phenyl)-1-(3-trifluoromethyl-phenyl)-1,3-dihydro-indol-2-one] and `Cc1cccc(N2C(=O)C(c3cc(C)c(O)c(C)c3)(c3cc(C)c(O)c(C)c3)c3ccccc32)c1` [Example 133, 3,3-Bis-(4-hydroxy-3,5-dimethyl-phenyl)-1-m-tolyl-1,3-dihydro-indol-2-one] cannot be ordered by Ki: at most 500 nM for the first, at most 500 nM for the second.

`COc1nccc(N2C(=O)C(c3cc(C)c(O)c(C)c3)(c3cc(C)c(O)c(C)c3)c3ccccc32)n1` [Example 143, 3,3-Bis-(4-hydroxy-3,5-dimethyl-phenyl)-1-(2-methoxy-pyrimidin-4-yl)-1,3-dihydro-indol-2-one] and `Cc1cc(C2(c3cc(C)c(O)c(C)c3)C(=O)N(Cc3noc(-c4ccco4)n3)c3ccccc32)cc(C)c1O` [Example 87, 1-(5-Furan-2-yl-[1,2,4]oxadiazol-3-ylmethyl)-3,3-bis-(4-hydroxy-3,5-dimethyl-phenyl)-1,3-dihydro-indol-2-one] cannot be ordered by Ki: at most 500 nM for the first, at most 500 nM for the second.

With `Cc1cc(C2(c3cc(C)c(O)c(C)c3)C(=O)N(Cc3ccccc3Cl)c3c(C)cccc32)cc(C)c1O` [Example 24, 1-(2-Chloro-benzyl)-3,3-bis-(4-hydroxy-3,5-dimethyl-phenyl)-7-methyl-1,3-dihydro-indol-2-one] the Ki was at most 1000 nM.
